target: human PAD4 (hPAD4) (Homo sapiens (Human), UniProt Q9UM07); experiment: RFMS Human PAD4 Functional Assay 1; format: biochemical; details: RFMS assay 1; 5 nM hPAD4, 250 μM BAEE substrate, 50 μM calcium, 37° C.
Procedure, shortened: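 Recombinant hPAD4 (5 nM) was preincubated with compound (top 50 μM, 0.5% DMSO) for 30 min at 37 °C, then reacted with 250 μM BAEE for 90 min at 37 °C in pH 7.5 HEPES buffer with 50 μM calcium and 5 μM TPEN. Product was derivatized with phenyl glyoxal and quantified by RapidFire MS.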

Sequence of human PAD4 (hPAD4) (Q9UM07 whole entry): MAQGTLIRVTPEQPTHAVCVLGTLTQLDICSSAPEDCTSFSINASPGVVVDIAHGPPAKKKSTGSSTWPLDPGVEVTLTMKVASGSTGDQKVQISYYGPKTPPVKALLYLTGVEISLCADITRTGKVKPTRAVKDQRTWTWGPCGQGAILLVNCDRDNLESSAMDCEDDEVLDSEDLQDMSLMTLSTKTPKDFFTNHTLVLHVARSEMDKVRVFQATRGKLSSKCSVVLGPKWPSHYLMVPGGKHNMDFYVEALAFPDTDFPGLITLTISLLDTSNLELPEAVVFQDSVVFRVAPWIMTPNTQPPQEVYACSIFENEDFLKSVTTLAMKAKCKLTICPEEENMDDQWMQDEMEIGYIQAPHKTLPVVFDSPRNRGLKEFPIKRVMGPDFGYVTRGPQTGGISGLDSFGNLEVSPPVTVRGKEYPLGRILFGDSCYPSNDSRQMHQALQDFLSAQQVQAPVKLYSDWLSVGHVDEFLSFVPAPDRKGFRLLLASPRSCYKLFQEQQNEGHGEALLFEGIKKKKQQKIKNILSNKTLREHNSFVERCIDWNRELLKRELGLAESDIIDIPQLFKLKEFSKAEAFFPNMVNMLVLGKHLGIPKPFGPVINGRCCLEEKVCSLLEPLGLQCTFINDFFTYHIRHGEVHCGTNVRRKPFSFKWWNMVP

IC50	Structure (SMILES)
0.705 µM	COc1cc(C(=O)N2CC3CCC2[C@@H]3N)cc2sc(-c3cc4ccc(-c5ccc(O)c(F)c5)nc4n3CC3CC3)c(C)c12 (stereo partly drawn) [Example 136, ((7R)-7-Amino-2-azabicyclo[2.2.1]heptan-2-yl)(2-(1-(cyclopropylmethyl)-6-(3-fluoro-4-hydroxyphenyl)-1H-pyrrolo[2,3-b]pyridin-2-yl)-4-methoxy-3-methylbenzo[b]thiophen-6-yl)methanone]
0.071 µM	COc1cc(C(=O)N2CC3CCC2[C@@H]3N)cc2sc(-c3cc4ccc(N5CCC(OC)CC5)nc4n3CC3CC3)c(C)c12 (stereo partly drawn) [Example 137, ((7R)-7-Amino-2-azabicyclo[2.2.1]heptan-2-yl)(2-(1-(cyclopropylmethyl)-6-(4-methoxypiperidin-1-yl)-1H-pyrrolo[2,3-b]pyridin-2-yl)-4-methoxy-3-methylbenzo[b]thiophen-6-yl)methanone]
0.252 µM	COc1cc(C(=O)N2C[C@H](N)C[C@@H](F)C2)cc2sc(-c3cc4cccnc4n3CC3CC3)c(C)c12 [Example 138, ((3R,5R)-3-Amino-5-fluoropiperidin-1-yl)(2-(1-(cyclopropylmethyl)-1H-pyrrolo[2,3-b]pyridin-2-yl)-4-methoxy-3-methylbenzo[b]thiophen-6-yl)methanone]
0.198 µM	COc1cc(C(=O)N2C[C@H](N)C[C@@H](F)C2)cc2sc(-c3cc4ccc(-c5ccc6c(c5)CNC6=O)nc4n3CC3CC3)c(C)c12 [Example 139, 5-(2-(6-((3R,5R)-3-Amino-5-fluoropiperidine-1-carbonyl)-4-methoxy-3-methylbenzo[b]thiophen-2-yl)-1-(cyclopropylmethyl)-1H-pyrrolo[2,3-b]pyridin-6-yl)isoindolin-1-one]
0.346 µM	COc1cc(C(=O)N2C[C@H](N)C[C@@H](F)C2)cc2sc(-c3cc4ccc(-c5ccc6c(c5)C(=O)NC6)nc4n3CC3CC3)c(C)c12 [Example 140, 6-(2-(6-((3R,5R)-3-Amino-5-fluoropiperidine-1-carbonyl)-4-methoxy-3-methylbenzo[b]thiophen-2-yl)-1-(cyclopropylmethyl)-1H-pyrrolo[2,3-b]pyridin-6-yl)isoindolin-1-one]
0.179 µM	COc1cc(C(=O)N2C[C@H](N)C[C@@H](F)C2)cc2sc(-c3cc4ccc(-c5ccc(C(N)=O)c(F)c5)nc4n3CC3CC3)c(C)c12 [Example 141, 4-(2-(6-((3R,5R)-3-Amino-5-fluoropiperidine-1-carbonyl)-4-methoxy-3-methylbenzo[b]thiophen-2-yl)-1-(cyclopropylmethyl)-1H-pyrrolo[2,3-b]pyridin-6-yl)-2-fluorobenzamide]
0.642 µM	COc1cc(C(=O)N2C[C@H](N)C[C@@H](F)C2)cc2sc(-c3cc4ccc(N5CCC(OC)CC5)nc4n3CC3CC3)c(C)c12 [Example 142, ((3R,5R)-3-Amino-5-fluoropiperidin-1-yl)(2-(1-(cyclopropylmethyl)-6-(4-methoxypiperidin-1-yl)-1H-pyrrolo[2,3-b]pyridin-2-yl)-4-methoxy-3-methylbenzo[b]thiophen-6-yl)methanone]
0.588 µM	COc1cc(C(=O)N2C[C@H](N)C[C@@H](F)C2)cc2sc(-c3cc4ccc(-c5ccc6c(c5)C(=O)NC6)cc4n3CC3CC3)c(C)c12 [Example 143, 6-(2-(6-((3R,5R)-3-Amino-5-fluoropiperidine-1-carbonyl)-4-methoxy-3-methylbenzo[b]thiophen-2-yl)-1-(cyclopropylmethyl)-1H-indol-6-yl)isoindolin-1-one]
0.164 µM	COc1cc(C(=O)N2C[C@H](N)C[C@@H](F)C2)cc2sc(-c3cc4ccc(-c5ccc6c(c5)CNC6=O)cc4n3CC3CC3)c(C)c12 [Example 144, 5-(2-(6-((3R,5R)-3-Amino-5-fluoropiperidine-1-carbonyl)-4-methoxy-3-methylbenzo[b]thiophen-2-yl)-1-(cyclopropylmethyl)-1H-indol-6-yl)isoindolin-1-one]
0.285 µM	COc1cc(C(=O)N2CC3CCC2[C@@H]3N)cc2oc(-c3cc4cccnc4n3CC3CC3)c(C)c12 (stereo partly drawn) [Example 145, ((7R)-7-Amino-2-azabicyclo[2.2.1]heptan-2-yl)(2-(1-(cyclopropylmethyl)-1H-pyrrolo[2,3-b]pyridin-2-yl)-4-methoxy-3-methylbenzofuran-6-yl)methanone]
1.21 µM	COc1cc(C(=O)N2CC3CCC2[C@@H]3N)cc2oc(-c3cc4ccc(Cl)nc4n3CC3CC3)c(C)c12 (stereo partly drawn) [Example 146, ((7R)-7-Amino-2-azabicyclo[2.2.1]heptan-2-yl)(2-(6-chloro-1-(cyclopropylmethyl)-1H-pyrrolo[2,3-b]pyridin-2-yl)-4-methoxy-3-methylbenzofuran-6-yl)methanone]
0.954 µM	COc1cc(C(=O)N2C[C@H](N)C[C@@H](F)C2)cc2oc(-c3cc4cccnc4n3CC3CC3)c(C)c12 [Example 147, ((3R,5R)-3-Amino-5-fluoropiperidin-1-yl)(2-(1-(cyclopropylmethyl)-1H-pyrrolo[2,3-b]pyridin-2-yl)-4-methoxy-3-methylbenzofuran-6-yl)methanone]
0.442 µM	COc1cc(C(=O)N2CC3CCC2[C@@H]3N)cc2oc(-c3cc4ccccc4n3CC3CC3)c(C)c12 (stereo partly drawn) [Example 148, ((7R)-7-Amino-2-azabicyclo[2.2.1]heptan-2-yl)(2-(1-(cyclopropylmethyl)-1H-indol-2-yl)-4-methoxy-3-methylbenzofuran-6-yl)methanone]
0.111 µM	COc1cc(C(=O)N2CC3CCC2[C@@H]3N)cc2oc(-c3cc4ccc(-c5ccc6c(c5)CNC6=O)cc4n3CC3CC3)c(C)c12 (stereo partly drawn) [Example 149, 5-(2-(6-((7R)-7-Amino-2-azabicyclo[2.2.1]heptane-2-carbonyl)-4-methoxy-3-methylbenzofuran-2-yl)-1-(cyclopropylmethyl)-1H-indol-6-yl)isoindolin-1-one]
0.187 µM	COc1cc(C(=O)N2CC3CCC2[C@@H]3N)cc2oc(-c3cc4ccc(-c5ccc6c(c5)C(=O)NC6)cc4n3CC3CC3)c(C)c12 (stereo partly drawn) [Example 150, 6-(2-(6-((7R)-7-Amino-2-azabicyclo[2.2.1]-heptane-2-carbonyl)-4-methoxy-3-methylbenzofuran-2-yl)-1-(cyclopropylmethyl)-1H-indol-6-yl)isoindolin-1-one]
0.325 µM	COc1cc(C(=O)N2CC3CCC2[C@@H]3N)cc2oc(-c3cc4ccc(C)cc4n3CC3CC3)c(C)c12 (stereo partly drawn) [Example 151, ((7R)-7-Amino-2-azabicyclo[2.2.1]heptan-2-yl)(2-(1-(cyclopropylmethyl)-6-methyl-1H-indol-2-yl)-4-methoxy-3-methylbenzofuran-6-yl)methanone]
0.192 µM	COc1cc(C(=O)N2CC3CCC2[C@@H]3N)cc2oc(-c3cc4ccc(-c5ccc(C(N)=O)c(F)c5)cc4n3CC3CC3)c(C)c12 (stereo partly drawn) [Example 152, 4-(2-(6-((7R)-7-Amino-2-azabicyclo[2.2.1]heptane-2-carbonyl)-4-methoxy-3-methylbenzofuran-2-yl)-1-(cyclopropylmethyl)-1H-indol-6-yl)-2-fluorobenzamide]
0.628 µM	COc1cc(C(=O)N2CC3CCC2[C@@H]3N)cc2oc(-c3cc4ccc(-c5ccc(C(N)=O)c(Cl)c5)cc4n3CC3CC3)c(C)c12 (stereo partly drawn) [Example 153, 4-(2-(6-((7R)-7-Amino-2-azabicyclo[2.2.1]heptane-2-carbonyl)-4-methoxy-3-methylbenzofuran-2-yl)-1-(cyclopropylmethyl)-1H-indol-6-yl)-2-chlorobenzamide]
